For one experiment, the system named is HCT116 cells. Description: Mitotic arrest assay on HCT116 cells (phospho-histone H3 Ser10). The experiment is classed as cell-based, human. Particulars: lowest active dose; for minimal effective concentration: Homo sapiens, HCT-116, HCT116 cells, read-out: Mitotic arrest HCT116 LAD (converted). The source says: Phosphorylation of histone H3 is tightly correlated with chromosome condensation during both mitosis and meiosis. The assay is a cellular immunosorbent assay wherein the sole antibody is labelled with a detectable conjugate. The phospho-histone H3 (ser10) antibody detects endogenous levels of histone H3 only when phosphorylated at serine 10. […] In parallel with antibody detection, the nuclei of the cells are stained with Hoechst 33342 for cell-counting. Cells are detected and analysed using the InCell Analyzer 1000 from GE Healthcare. Since both the antibody-detection as well as the Hoechst-staining are in the nucleus, the dual area object intensity algorithm is used for analysing the wells.
All compounds tested were dissolved in DMSO and further dilutions were made in culture medium. Final DMSO concentrations never exceeded 0.1% (v/v).
HCT116 cells (supplier: ATCC) (human colon carcinoma cell line) were cultivated in Mc Coy's 5 A medium (supplier: Gibco) supplemented with 10% foetal calf serum (FCS), 2 mM L-glutamine and gentamycin at 37° C. in a humidified incubator with 5% CO2.
HCT116 cells were seeded at 20.000 cells per well in a 96 well plate (black/clear bottom, poly-D-lysine coated, supplier Greiner), cultured overnight to adhere to the bottom of the plate and treated with compound for 6 hours at 37° C. in a humidified incubator. After incubation, the medium was removed and cells were fixed using 100 μl/well formaldehyde (Accustain®, Formaline solution 10% neutral buffered, contains 4% formaldehyde w/v, supplier: Sigma) was added. After incubation for 15 minutes at room temperature, the formaldehyde was removed and cells were incubated with methanol (−20° C.) for 15 minutes at room temperature. After incubation, cells were washed once with phosphate-buffered saline (PBS —CaCl2, —MgCl2, suppier: Gibco)/0.05% Tween 20. The anti-phospho-histone H3 (Ser10) Alexa Fluor 488 antibody (supplier: Cell signalling) is used for detection of the cells inmitosis. The antibody was diluted 1/50 in 5% bovine serum albumins (BSA) and 50 μl/well was used for incubation overnight at room temperature in the dark.
A 1/2000 dilution of Hoechtst 33342 (10 mg/ml, supplier: Invitrogen) was made and 100 μl/well was added for at least 30 minutes before acquiring images. The absorbance at dual wavelengths of 360/480 nm was measured using the InCell Analyzer 1000 from GE Healthcare and the results were then analyzed.
For each experiment, controls (containing no drug) and a blank incubation (containing no cells or drugs) were run in parallel. Analysis was done in triplicate. Low cell count wells were invalidated. The blank value was subtracted from all control and sample values and divided by the standard deviation of the measurements. The compounds were considered active when the obtained value (sigma) was >5. Herein the effects of test compounds are expressed as the lowest dose giving a sigma value of >5 (LAD) (see table F-2).

Another experiment concerns PC-3 cells. Description: Antiproliferative activity, Alamar Blue assay, PC-3 cells. The class given is cell-based, human. Particulars: for IC50: Homo sapiens, PC-3, PC3 cells, read-out: PC3 antiproliferative activity pIC50 (converted). Here is the method: Human prostate cancer PC-3 cells obtained from the ATCC were cultured in HAM′S F12 medium supplemented with 1 mM Sodium Pyruvate, 1.5 g/L Sodium Bicarbonate, 50 μg/ml gentamicin, non-essential amino acids and 10% fetal calf serum.
Resazurin was purchased from Aldrich (Prod. No. 199303). Potassium ferrocyanide, potassium ferricyanide, KH2PO4 and K2HPO4 were purchased from Sigma (Prod. Nos. P9387, P8131, P5655 and P8281, respectively).
Potassium Phosphate Buffer 0.1 M (PPB) was made as follows: 2.72 gram KH2PO4 and 13.86 gram K2HPO4 were dissolved in 500 ml milli-Q H2O, the pH was adjusted to pH 7.4 and the volume was brought to 1 litre with milli-Q H2O; the buffer was filter sterilised and stored at room temperature. Resazurin stock solution (PPB-A) was prepared fresh by dissolving 45 mg resazurin in 15 ml PBS. 30 mM potassium ferricyanide (PPB-B) was prepared by dissolving 0.987 gram potassium ferricyanide in 100 ml PPB. 30 mM potassium ferrocyanide (PPB-C) was prepared by dissolving 1.266 gram potassium ferrocyanide in 100 ml PPB.
Mixture of PPB-A, PPB-B and PPB-C was prepared by mixing equal volumes of the respective solutions. Resazurin work solution (herein termed “Alamar Blue” solution) was prepared by diluting said mixture 20×(vol/vol) in PPB and filter sterilising; the Alamar Blue solution could be kept at 4° C. for a maximum of 2 weeks.
For experiments in 384 wells plates the cells were seeded at a density of 4.5×10^3 cells/ml in Falcon 384-well culture plates (Life Technologies, Merelbeke, Belgium), black with clear bottom, in 45 μl culture medium. Cells were allowed to adhere to plastic for 24 hr. The tested compound was pre-diluted (1/50 in culture medium) and 5 μl pre-diluted compound was added to the wells. Following 4-day incubation, 10 μl of the Alamar Blue solution was added to each well and the cells were further incubated for 4 hrs (HCT116) or 24 hrs (PC-3) at 37° C. The fluorescence intensity was measured for each well on a Fluorescence plate reader (Fluorskan, Labsystems, 540 nm excitation and 590 nm emission)
The antiproliferative activity was calculated as percentage of remaining viable cells in treated versus control (untreated cells) conditions. Within an experiment, the result for each experimental condition is the mean of 3 replicate wells. When appropriate, the experiments were repeated to establish full concentration-response curves. When appropriate, IC50-values (concentration of the drug, needed to reduce cell growth to 50% of the control) were computed using probit analysis for graded data (Finney, D. J., Probit Analyses, 2nd Ed. Chapter 10, Graded Responses, Cambridge University Press, Cambridge 1962). Herein the effects of test compounds are expressed as pIC50 (the negative log value of the IC50-value) (see Table 2).
Background: The colour change of resazurin is a common sign of viable cells or microbes.

Bounds are passed on as bounds.

Take `C#Cc1cccc(CC(C)(C#N)c2ccc3cc(CC)c(=O)[nH]c3c2)c1` (racemic) [Compound 168]: the minimal effective concentration in the experiment with HCT116 cells is 0.0316 µM. In addition, the IC50 in the experiment on PC-3 cells is 0.158 µM.
For `CCc1cc2ccc(C(C)(C#N)CC3COc4ccccc4O3)cc2[nH]c1=O` (single isomer, unassigned) [Compound 48], in the experiment with HCT116 cells (HCT116 cells, the values are: pLAD (−log M lowest active dose)), the Mitotic arrest HCT116 LAD turned out to be 6.5. Moreover, the “PC3 antiproliferative activity pIC50” value in the experiment on PC-3 cells (PC3 cells) came to 5.4.
For the compound `CCc1cc2ccc([C@@](C)(C#N)CCOc3ccccc3)cc2[nH]c1=O` (single isomer, unassigned) [Compound 150], the minimal effective concentration in the experiment on HCT116 cells is 0.316 µM. For the same compound, in the experiment on PC-3 cells, the IC50 was 1.58 µM.
For `Cc1cc2ccc([C@@](C)(C#N)CCOc3ccccc3)cc2[nH]c1=O` (single isomer, unassigned) [Compound 164], in that order: 0.1 µM and 1 µM.
The matching figures for `CCc1cc2ccc(C(C)(C#N)Cc3cccc(C(=O)O)c3)cc2[nH]c1=O` (stereo not drawn) [Compound 10]: 10 µM and greater than 10 µM.
For the compound `CCc1cc2ccc(C(C)(C#N)Cc3cccc(-c4nc(C)no4)c3)cc2[nH]c1=O` (stereo not drawn) [Compound 11], the minimal effective concentration with HCT116 cells was 0.316 µM. Further, the IC50 with PC-3 cells is 1.58 µM.
As to `CCc1cc2ccc(C(C)(C#N)Cc3cccc(C(=O)OC)c3)cc2[nH]c1=O` (stereo not drawn) [Compound 12], in the experiment with HCT116 cells, the minimal effective concentration was 0.1 µM. Moreover, the IC50 with PC-3 cells is 0.0631 µM.
For `CCc1cc2ccc(C(C)(C#N)Cc3cccc(C(=O)NC)c3)cc2[nH]c1=O` (stereo not drawn) [Compound 13], in that order: 1 µM and 7.94 µM.
Take `CCc1cc2ccc(C(C)(C#N)Cc3cccc(NS(C)(=O)=O)c3)cc2[nH]c1=O` (stereo not drawn) [Compound 14]: in the experiment on HCT116 cells, the minimal effective concentration is 10 µM. In addition, the IC50 with PC-3 cells is greater than 10 µM.
For `CCc1cc2ccc(C(C)(C#N)Cc3cccc(N)c3)cc2[nH]c1=O` (stereo not drawn) [Compound 15], in that order: 1 µM and 2.51 µM.
For `CCc1cc2ccc(C(C)(C#N)Cc3cccc(NC(=O)N4CCOCC4)c3)cc2[nH]c1=O` (stereo not drawn) [Compound 16], in that order: 10 µM and greater than 10 µM.
For `CCc1cc2ccc(C(C)(C#N)Cc3ccccc3Br)cc2[nH]c1=O` (stereo not drawn) [Compound 104], in that order: 0.316 µM and 1 µM.
For the compound `CCc1cc2ccc(C(C)(C#N)Cc3ccccc3C)cc2[nH]c1=O` (stereo not drawn) [Compound 105], the minimal effective concentration with HCT116 cells is 0.1 µM. For the same compound, in the experiment on PC-3 cells, the IC50 was 1 µM.
For `CCc1cc2ccc(C(C)(C#N)Cc3ccccc3F)cc2[nH]c1=O` (stereo not drawn) [Compound 106], in that order: 0.1 µM and 0.794 µM.
For `CCc1cc2ccc(C(C)(C#N)Cc3cccc(C)c3)cc2[nH]c1=O` (stereo not drawn) [Compound 107], in that order: 0.316 µM and 0.251 µM.
The matching figures for `CCc1cc2ccc(C(C)(C#N)Cc3ccc(C(F)(F)F)cc3)cc2[nH]c1=O` (stereo not drawn) [Compound 108]: 3.16 µM and greater than 10 µM.
With `CCc1cc2ccc(C(C)(C#N)Cc3cccc(C(F)(F)F)c3)cc2[nH]c1=O` (stereo not drawn) [Compound 109], the minimal effective concentration in the experiment with HCT116 cells is 0.316 µM. Moreover, the IC50 in the experiment on PC-3 cells is 0.631 µM.
For the compound `CCc1cc2ccc(C(C)(C#N)Cc3cccc(OC(F)(F)F)c3)cc2[nH]c1=O` (stereo not drawn) [Compound 110], in the experiment on HCT116 cells, the minimal effective concentration was 0.316 µM. In the experiment on PC-3 cells, the IC50 was 0.2 µM.
For `CCc1cc2ccc(C(C)(C#N)Cc3ccc(C#N)cc3)cc2[nH]c1=O` (stereo not drawn) [Compound 111], in that order: 3.16 µM and greater than 10 µM.
The matching figures for `CCc1cc2ccc(C(C)(C#N)Cc3cccc(F)c3)cc2[nH]c1=O` (stereo not drawn) [Compound 112]: 0.316 µM and 0.398 µM.
The matching figures for `CCc1cc2ccc(C(C)(C#N)Cc3cccc(OC)c3)cc2[nH]c1=O` (stereo not drawn) [Compound 113]: 0.316 µM and 0.251 µM.
In the case of `CCc1cc2ccc(C(C)(C#N)Cc3ccc(OC(F)(F)F)cc3)cc2[nH]c1=O` (stereo not drawn) [Compound 114], the minimal effective concentration in the experiment with HCT116 cells is 1 µM. Moreover, the IC50 with PC-3 cells was 1.58 µM.
For `CCc1cc2ccc(C(C)(C#N)Cc3ccc(F)cc3)cc2[nH]c1=O` (stereo not drawn) [Compound 115], the minimal effective concentration with HCT116 cells was 0.316 µM. Further, the IC50 in the experiment on PC-3 cells is 0.631 µM.
The matching figures for `CCc1cc2ccc(C(C)(C#N)Cc3c(F)c(F)c(F)c(F)c3F)cc2[nH]c1=O` (stereo not drawn) [Compound 116]: 0.1 µM and 0.794 µM.
For `CCc1cc2ccc(C(C)(C#N)Cc3ccc(C)cc3)cc2[nH]c1=O` (stereo not drawn) [Compound 117], in that order: 1 µM and 2 µM.
The matching figures for `CCc1cc2ccc(C(C)(C#N)Cc3ccc(Br)cc3)cc2[nH]c1=O` (stereo not drawn) [Compound 118]: 1 µM and 1.26 µM.
Consider `CCc1cc2ccc(C(C)(C#N)Cc3ccc(OC)cc3)cc2[nH]c1=O` (stereo not drawn) [Compound 119], for which the minimal effective concentration in the experiment with HCT116 cells is 1 µM. The IC50 with PC-3 cells was 2.51 µM.
For `CCc1cc2ccc(C(C)(C#N)Cc3cccc(F)c3F)cc2[nH]c1=O` (stereo not drawn) [Compound 120], in that order: 0.1 µM and 0.794 µM.
Take `CCc1cc2ccc(C(C)(C#N)CC#Cc3cccc(F)c3)cc2[nH]c1=O` (stereo not drawn) [Compound 184]: the IC50 in the experiment with PC-3 cells was 3.98 µM.
With `Cc1cc2ccc([C@@](C)(C#N)[C@@H]3CCc4cc(C#N)ccc43)cc2[nH]c1=O` [Compound 245], the IC50 in the experiment on PC-3 cells was 7.94 µM.
On the same count and under the same terms, then `CCc1cc2ccc([C@](C)(C#N)C[C@@H]3CCc4cc(C)ccc4O3)cc2[nH]c1=O` [Compound 251], with 1 µM; and `CCc1cc2ccc([C@@](C)(C#N)C[C@@H]3CCc4cc(C)ccc4O3)cc2[nH]c1=O` [Compound 252], with 0.251 µM; and `CCc1cc2ccc(C(C#N)(CC)CCOc3ccc(C#N)cc3)cc2[nH]c1=O` (stereo not drawn) [Compound 271], with 2.51 µM.
On to `Cc1cc2ccc([C@@](C)(C#N)[C@H]3CCc4cc(C#N)ccc43)cc2[nH]c1=O` [Compound 389], for which the IC50 in the experiment with PC-3 cells is 0.2 µM.
On the same count and under the same terms, then `CCc1cc2ccc(C(C#N)(CC)C3CCc4ccc(F)cc43)cc2[nH]c1=O` (stereo not drawn) [Compound 391], with 0.794 µM.

The record behind these values is patent publication US8778966B2, “Quinolinone derivatives as PARP and tank inhibitors” (Janssen Pharmaceutica, NV, priority 2007, dated 2014).
